According to publication PMC8185074, “Anchor extension: a structure-guided approach to design cyclic peptides targeting enzyme active sites” (Nature Communications, 2021):
Peptide text beside a SMILES is read from it.

Key:
Assay type in all cases: biochemical
[1] = target: T1, HDAC2 (Homo sapiens, UniProt Q92769); experiment: Initial HDAC2 IC50 estimate (BPS Biosciences HDAC fluorogenic assay kit); conditions: Supplementary Dataset 2; read-out: HDAC2 activity (initial activity)
T1 construct: purchased Reaction Biology Corporation (assay run by the CRO)
In short: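 Inhibition measured by kit-based fluorogenic HDAC activity assays, with each point in duplicate or triplicate. Values come from a full 1 µM–100 pM series (1:10 steps) or are range estimates from just 20 nM and 200 nM.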

[2] = target: T2, HDAC8 (Homo sapiens, UniProt Q9BY41); experiment: HDAC8 inhibition, full IC50 measurement (Reaction Biology; fluorogenic p53 peptide RHKK(Ac)AMC); conditions: t1/t2 replicates
T2 construct: purchased Reaction Biology Corporation (assay run by the CRO)
T2 sequence (Q9BY41 1-377): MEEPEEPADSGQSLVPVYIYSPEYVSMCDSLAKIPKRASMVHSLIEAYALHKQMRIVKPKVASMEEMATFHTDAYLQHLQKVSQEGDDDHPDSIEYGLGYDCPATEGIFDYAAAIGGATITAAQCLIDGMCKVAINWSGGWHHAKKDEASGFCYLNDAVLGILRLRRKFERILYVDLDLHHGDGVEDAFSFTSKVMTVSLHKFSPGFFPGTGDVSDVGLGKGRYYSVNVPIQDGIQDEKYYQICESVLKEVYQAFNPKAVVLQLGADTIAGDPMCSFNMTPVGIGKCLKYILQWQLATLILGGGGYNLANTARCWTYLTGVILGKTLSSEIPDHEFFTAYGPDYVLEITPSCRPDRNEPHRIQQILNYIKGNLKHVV
In short: (§1)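 Deacetylation of 50 μM RHKK(Ac)AMC is measured after 1 h at 30 °C in pH 8.0 Tris buffer (1% DMSO, 1 mg/ml BSA). Developer ends the reaction; the post-plateau 360/460 nm signal is fitted to IC50, averaging replicate measurements.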

[3] = target: T3, HDAC1 (Homo sapiens, UniProt Q13547); experiment: HDAC1 inhibition, full IC50 measurement (Reaction Biology; fluorogenic p53 peptide RHKK(Ac)AMC); conditions: t1/t2 replicates
T3 construct: purchased Reaction Biology Corporation (assay run by the CRO)
In short: as §1

[4] = target: T1, HDAC2; experiment: HDAC2 inhibition, full IC50 measurement (Reaction Biology; fluorogenic p53 peptide RHKK(Ac)AMC)
In short: as §1

[5] = target: T4, HDAC3 (Homo sapiens, UniProt O15379); experiment: HDAC3 inhibition, full IC50 measurement (Reaction Biology; fluorogenic p53 peptide RHKK(Ac)AMC)
T4 construct: purchased Reaction Biology Corporation (assay run by the CRO)
In short: as §1

[6] = peptide conc. 1.00E-05 M, listed as des1.1.0_t1
[7] = peptide conc. 1.00E-05 M, listed as des1.1.0_t2
[8] = peptide conc. 1.11E-06 M, listed as des1.1.0_t1
[9] = peptide conc. 1.11E-06 M, listed as des1.1.0_t2
[10] = peptide conc. 1.23E-07 M, listed as des1.1.0_t1
[11] = peptide conc. 1.23E-07 M, listed as des1.1.0_t2
[12] = peptide conc. 1.37E-08 M, listed as des1.1.0_t1
[13] = peptide conc. 1.52E-09 M, listed as des1.1.0_t1
[14] = peptide conc. 1.52E-09 M, listed as des1.1.0_t2
[15] = peptide conc. 3.33E-06 M, listed as des1.1.0_t1
[16] = peptide conc. 3.33E-06 M, listed as des1.1.0_t2
[17] = peptide conc. 3.70E-07 M, listed as des1.1.0_t1
[18] = peptide conc. 3.70E-07 M, listed as des1.1.0_t2
[19] = peptide conc. 4.12E-08 M, listed as des1.1.0_t1
[20] = peptide conc. 4.12E-08 M, listed as des1.1.0_t2
[21] = peptide conc. 4.57E-09 M, listed as des1.1.0_t1
[22] = peptide conc. 4.57E-09 M, listed as des1.1.0_t2
[23] = peptide conc. 5.08E-10 M, listed as des1.1.0_t1
[24] = peptide conc. 5.08E-10 M, listed as des1.1.0_t2

T4 sequence (O15379 whole entry): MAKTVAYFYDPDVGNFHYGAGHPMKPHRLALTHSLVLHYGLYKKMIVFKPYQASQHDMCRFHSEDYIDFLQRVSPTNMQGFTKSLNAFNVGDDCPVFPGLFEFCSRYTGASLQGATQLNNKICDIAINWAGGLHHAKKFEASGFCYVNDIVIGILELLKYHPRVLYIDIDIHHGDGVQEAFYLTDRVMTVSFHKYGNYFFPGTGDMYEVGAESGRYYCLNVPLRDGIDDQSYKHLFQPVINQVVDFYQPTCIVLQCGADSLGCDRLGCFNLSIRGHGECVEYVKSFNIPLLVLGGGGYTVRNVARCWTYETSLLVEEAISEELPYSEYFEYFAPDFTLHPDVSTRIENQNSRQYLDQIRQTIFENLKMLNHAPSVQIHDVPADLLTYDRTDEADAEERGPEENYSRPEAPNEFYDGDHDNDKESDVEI
T4 sequence (Q9Y618 395-489 partner limits assumed): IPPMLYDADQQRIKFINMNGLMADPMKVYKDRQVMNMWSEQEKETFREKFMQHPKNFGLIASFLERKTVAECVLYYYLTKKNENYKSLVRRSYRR
T1 sequence (Q92769 whole entry): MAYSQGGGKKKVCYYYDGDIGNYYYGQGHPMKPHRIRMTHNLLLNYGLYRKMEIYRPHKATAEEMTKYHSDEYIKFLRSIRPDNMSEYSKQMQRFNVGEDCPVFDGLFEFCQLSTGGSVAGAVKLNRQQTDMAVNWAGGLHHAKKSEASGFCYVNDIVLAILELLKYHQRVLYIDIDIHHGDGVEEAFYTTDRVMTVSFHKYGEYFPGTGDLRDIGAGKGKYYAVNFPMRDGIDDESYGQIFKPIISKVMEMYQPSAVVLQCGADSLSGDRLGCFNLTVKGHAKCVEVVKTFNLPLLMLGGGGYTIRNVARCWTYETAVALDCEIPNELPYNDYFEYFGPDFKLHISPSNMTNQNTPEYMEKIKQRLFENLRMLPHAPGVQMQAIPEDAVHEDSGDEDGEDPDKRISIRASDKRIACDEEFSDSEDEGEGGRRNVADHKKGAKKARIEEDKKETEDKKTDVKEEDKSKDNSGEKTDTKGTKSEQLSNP
T3 sequence (Q13547 whole entry): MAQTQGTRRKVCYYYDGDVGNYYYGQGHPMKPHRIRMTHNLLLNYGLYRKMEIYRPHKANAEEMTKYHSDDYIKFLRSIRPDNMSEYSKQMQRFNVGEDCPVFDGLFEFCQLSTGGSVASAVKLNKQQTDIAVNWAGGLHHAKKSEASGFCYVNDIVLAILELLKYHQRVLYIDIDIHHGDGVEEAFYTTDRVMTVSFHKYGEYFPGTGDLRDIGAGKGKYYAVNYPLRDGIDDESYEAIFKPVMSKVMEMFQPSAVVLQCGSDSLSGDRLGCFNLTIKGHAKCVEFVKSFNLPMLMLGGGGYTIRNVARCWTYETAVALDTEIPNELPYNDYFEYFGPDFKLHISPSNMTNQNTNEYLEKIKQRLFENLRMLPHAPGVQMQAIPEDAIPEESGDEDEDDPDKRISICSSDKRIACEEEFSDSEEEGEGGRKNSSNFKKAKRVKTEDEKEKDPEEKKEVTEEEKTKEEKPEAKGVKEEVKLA

NCCCC[C@@H]1NC(=O)[C@@H]2CCCN2C(=O)[C@H](CC(N)=O)NC(=O)[C@H](CCCCCS)NC(=O)CNC(=O)[C@H](Cc2c[nH]c3ccccc23)NC(=O)[C@@H](CCCCN)NC(=O)[C@H](CCC(N)=O)NC1=O [des1.1.0, SHA-Asn-Pro-Lys-Gln-dLys-Trp-Gly] (HELM PEPTIDE1{G.[O=C([C@H](CCCCCS)N[*:1])[*:2]].N.P.K.Q.[dK].W}$PEPTIDE1,PEPTIDE1,1:R1-8:R2$$$V2.0)
IC50 [1]: 10 to 100 nM
HDAC8 activity raw data (signal) [2, 6]: 10236983
HDAC8 activity raw data (signal) [2, 7]: 10257985
HDAC8 activity raw data (signal) [2, 8]: 29747792
HDAC8 activity raw data (signal) [2, 9]: 28102681
HDAC8 activity raw data (signal) [2, 10]: 42994609
HDAC8 activity raw data (signal) [2, 11]: 40726222
HDAC8 activity raw data (signal) [2, 12]: 47328720
HDAC8 activity raw data (signal) [2, 13]: 53395040
HDAC8 activity raw data (signal) [2, 14]: 46072556
HDAC8 activity raw data (signal) [2, 15]: 22600954
HDAC8 activity raw data (signal) [2, 16]: 20891410
HDAC8 activity raw data (signal) [2, 17]: 39809686
HDAC8 activity raw data (signal) [2, 18]: 39972357
HDAC8 activity raw data (signal) [2, 19]: 43706367
HDAC8 activity raw data (signal) [2, 20]: 45310513
HDAC8 activity raw data (signal) [2, 21]: 46840747
HDAC8 activity raw data (signal) [2, 22]: 46072556
HDAC8 activity raw data (signal) [2, 23]: 54262535
HDAC8 activity raw data (signal) [2, 24]: 46072556
HDAC1 activity raw data (signal) [3, 6]: 20784
HDAC1 activity raw data (signal) [3, 7]: 14494
HDAC1 activity raw data (signal) [3, 8]: 173781
HDAC1 activity raw data (signal) [3, 9]: 153537
HDAC1 activity raw data (signal) [3, 10]: 723204
HDAC1 activity raw data (signal) [3, 11]: 656726
HDAC1 activity raw data (signal) [3, 12]: 1174733
HDAC1 activity raw data (signal) ([3]; peptide conc. 1.37E-08 M, listed as des1.1.0_t2): 1037204
HDAC1 activity raw data (signal) [3, 13]: 1283411
HDAC1 activity raw data (signal) [3, 14]: 1084142
HDAC1 activity raw data (signal) [3, 15]: 63841
HDAC1 activity raw data (signal) [3, 16]: 53160
HDAC1 activity raw data (signal) [3, 17]: 422237
HDAC1 activity raw data (signal) [3, 18]: 392419
HDAC1 activity raw data (signal) [3, 19]: 1039124
HDAC1 activity raw data (signal) [3, 20]: 863645
HDAC1 activity raw data (signal) [3, 21]: 1182029
HDAC1 activity raw data (signal) [3, 22]: 1065379
HDAC1 activity raw data (signal) [3, 23]: 1239936
HDAC1 activity raw data (signal) [3, 24]: 1111104
HDAC2 activity raw data (signal) ([4]; Conc. 1.00E-05 M, t1): 26927
HDAC2 activity raw data (signal) ([4]; Conc. 1.00E-05 M, t2): 32005
HDAC2 activity raw data (signal) ([4]; Conc. 1.11E-06 M, t1): 219707
HDAC2 activity raw data (signal) ([4]; Conc. 1.11E-06 M, t2): 218492
HDAC2 activity raw data (signal) ([4]; Conc. 1.23E-07 M, t1): 761586
HDAC2 activity raw data (signal) ([4]; Conc. 1.23E-07 M, t2): 802228
HDAC2 activity raw data (signal) ([4]; Conc. 1.37E-08 M, t1): 1027147
HDAC2 activity raw data (signal) ([4]; Conc. 1.37E-08 M, t2): 1098979
HDAC2 activity raw data (signal) ([4]; Conc. 1.52E-09 M, t1): 1105616
HDAC2 activity raw data (signal) ([4]; Conc. 1.52E-09 M, t2): 1105020
HDAC2 activity raw data (signal) ([4]; Conc. 3.33E-06 M, t1): 102737
HDAC2 activity raw data (signal) ([4]; Conc. 3.33E-06 M, t2): 85727
HDAC2 activity raw data (signal) ([4]; Conc. 3.70E-07 M, t1): 469170
HDAC2 activity raw data (signal) ([4]; Conc. 3.70E-07 M, t2): 506124
HDAC2 activity raw data (signal) ([4]; Conc. 4.12E-08 M, t1): 943203
HDAC2 activity raw data (signal) ([4]; Conc. 4.12E-08 M, t2): 906297
HDAC2 activity raw data (signal) ([4]; Conc. 4.57E-09 M, t1): 1010930
HDAC2 activity raw data (signal) ([4]; Conc. 4.57E-09 M, t2): 1048769
HDAC2 activity raw data (signal) ([4]; Conc. 5.08E-10 M, t1): 1134293
HDAC2 activity raw data (signal) ([4]; Conc. 5.08E-10 M, t2): 1187103
IC50 ([4]; figure legends, Supp. Table 1, read-out: HDAC2 IC50): 289 nM
HDAC3 activity raw data (signal) ([5]; Conc. 1.00E-05 M, t1): 5471
HDAC3 activity raw data (signal) ([5]; Conc. 1.00E-05 M, t2): 9474
HDAC3 activity raw data (signal) ([5]; Conc. 1.11E-06 M, t1): 58802
HDAC3 activity raw data (signal) ([5]; Conc. 1.11E-06 M, t2): 66090
HDAC3 activity raw data (signal) ([5]; Conc. 1.23E-07 M, t1): 406610
HDAC3 activity raw data (signal) ([5]; Conc. 1.23E-07 M, t2): 410292
HDAC3 activity raw data (signal) ([5]; Conc. 1.37E-08 M, t1): 1181819
HDAC3 activity raw data (signal) ([5]; Conc. 1.37E-08 M, t2): 1197870
HDAC3 activity raw data (signal) ([5]; Conc. 1.52E-09 M, t1): 1432990
HDAC3 activity raw data (signal) ([5]; Conc. 1.52E-09 M, t2): 1448071
HDAC3 activity raw data (signal) ([5]; Conc. 3.33E-06 M, t1): 23719
HDAC3 activity raw data (signal) ([5]; Conc. 3.33E-06 M, t2): 26034
HDAC3 activity raw data (signal) ([5]; Conc. 3.70E-07 M, t1): 182063
HDAC3 activity raw data (signal) ([5]; Conc. 3.70E-07 M, t2): 201749
HDAC3 activity raw data (signal) ([5]; Conc. 4.12E-08 M, t1): 761011
HDAC3 activity raw data (signal) ([5]; Conc. 4.12E-08 M, t2): 799167
HDAC3 activity raw data (signal) ([5]; Conc. 4.57E-09 M, t1): 1249527
HDAC3 activity raw data (signal) ([5]; Conc. 4.57E-09 M, t2): 1277477
HDAC3 activity raw data (signal) ([5]; Conc. 5.08E-10 M, t1): 1537856
HDAC3 activity raw data (signal) ([5]; Conc. 5.08E-10 M, t2): 1472354
